Data published in publication PMC3670929, “Zn(II)-Chlorido Complexes of Phytohormone Kinetin and Its Derivatives Modulate Expression of Inflammatory Mediators in THP-1 Cells” (PLoS ONE, 2013).

Tested on: IL-1β
Assay: LPS-induced IL-1β secretion in THP-1 macrophage-like cells (ELISA)
Type: cell-based, human
Conditions: complexes 5 µM, prednisone 1 µM, 1 h pre-treatment, 24 h after LPS
Procedure: To determine the influence of the tested complexes on the TNF-α and IL-1β secretions and MMPs activity, macrophage-like cells derived from the THP-1 cell line were used. The cells were cultivated as above, but were split into 24-well microtitre plates to get a concentration of 100 000 cells/mL (1 mL/well) and the differentiation to macrophages was induced by phorbol myristate acetate (PMA) as described previously. Differentiated macrophages were pre-treated for 1 h with 5 µM solutions of the tested complexes or 1 µM prednisone dissolved in DMSO [the final DMSO concentration was 0.1% (v/v)] and with the 0.1% (v/v) DMSO solution itself (the experimental group called vehicle); the given concentrations of the compounds lack the cytotoxic effect. The inflammatory response was triggered by adding 1 µg/mL Escherichia coli 0111:B4 lipopolysaccharide (LPS) (Sigma-Aldrich, Germany) dissolved in water to pre-treated macrophages, control cells were without the LPS treatment. Each experiment was performed in triplicate. Macrophages, which were pre-treated with the tested compounds for 1 h, were incubated with LPS for the next 24 h. Then, the medium was collected and the concentrations of TNF-α and IL-1β were measured by an Instant ELISA kit (eBioscience, Austria) according to the manufacturer’s manual.

C[C@]12C=CC(=O)C=C1CC[C@@H]1[C@@H]2C(=O)C[C@@]2(C)[C@H]1CC[C@]2(O)C(=O)CO [prednisone, reference compound]
decrease of IL-1β secretion, factor in comparison with the vehicle-treated cells: 2.42 times
